Test results from publication PMC6858373 (Scientific Reports, 2019).
Structures can show the parent of a compound that is named as a salt. Where two headings read alike, the source gives them in different places.

Legend:
[1] = molecular target: T1, FGF14:Nav1.6 C-tail complex (Homo sapiens, UniProt Q92915+Q9UQD0); experiment: Split-luciferase complementation assay (LCA) in Clone V double stable HEK293 cells; format: cell-based; details: for Split Luciferase Assay Z-score Set 1 / Split Luciferase Assay Z-score Set 2: normalized to on-plate 0.3% DMSO controls
T1 construct: polymerase chain reaction (PCR) amplification of the FGF14 open reading frame (nt 1–855); C-terminal fragment of Nav1.6 (amino acids 1763–1976) fused with CD4ΔC-tail (amino acids 1–395); expressed in transfected cells
T1 sequence (Q92915 1-252 isoform Q92915-2): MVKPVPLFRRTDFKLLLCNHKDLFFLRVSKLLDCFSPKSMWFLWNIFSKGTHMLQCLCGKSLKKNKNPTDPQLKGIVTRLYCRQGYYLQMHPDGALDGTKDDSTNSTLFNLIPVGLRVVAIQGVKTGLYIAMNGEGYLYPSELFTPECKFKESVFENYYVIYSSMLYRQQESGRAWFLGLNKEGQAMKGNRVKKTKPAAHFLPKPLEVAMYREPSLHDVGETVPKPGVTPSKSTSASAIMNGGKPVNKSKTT
T1 sequence (Q9UQD0 1763-1976 limits assumed): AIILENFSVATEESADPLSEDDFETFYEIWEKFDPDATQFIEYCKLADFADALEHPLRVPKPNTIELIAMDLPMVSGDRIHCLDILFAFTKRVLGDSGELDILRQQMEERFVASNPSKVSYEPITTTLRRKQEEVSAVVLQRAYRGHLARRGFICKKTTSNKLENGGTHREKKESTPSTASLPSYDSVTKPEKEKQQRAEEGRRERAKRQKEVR

[2] = molecular target: full-length P. pyralis luciferase (Photinus pyralis, UniProt P08659, K549A/L550V/N119G/N50D/S548I); format: cell-based; details: for Luciferase Assay % Lum: full-length luciferase counter-screen luminescence; for Luciferase Assay Z-score: full-length luciferase counter-screen
Chain of full-length P. pyralis luciferase (P08659 whole entry N50D/N119G/S548I/K549A/L550V, looked up): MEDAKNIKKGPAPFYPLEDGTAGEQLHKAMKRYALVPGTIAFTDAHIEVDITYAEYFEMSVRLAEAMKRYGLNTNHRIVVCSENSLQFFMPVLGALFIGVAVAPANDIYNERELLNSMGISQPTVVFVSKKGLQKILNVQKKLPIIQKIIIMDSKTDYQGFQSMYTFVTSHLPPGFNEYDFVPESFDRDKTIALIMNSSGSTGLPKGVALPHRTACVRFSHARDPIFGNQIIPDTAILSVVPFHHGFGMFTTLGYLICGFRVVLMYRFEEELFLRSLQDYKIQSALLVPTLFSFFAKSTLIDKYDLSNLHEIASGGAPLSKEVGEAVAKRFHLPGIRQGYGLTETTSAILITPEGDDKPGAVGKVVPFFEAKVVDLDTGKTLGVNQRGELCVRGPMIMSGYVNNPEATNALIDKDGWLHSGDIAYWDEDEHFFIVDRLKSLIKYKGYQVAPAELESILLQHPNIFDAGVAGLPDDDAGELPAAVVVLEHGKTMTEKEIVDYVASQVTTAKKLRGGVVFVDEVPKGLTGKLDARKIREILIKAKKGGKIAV

in vitro = details: human
Clone V cells [3] = details: human
Clone V cells [4] = experiment: CellTiter Blue (CTB) cell viability counter-screen; details: CC_NCI screening; CTB cell viability fluorescence; normalized to on-plate 0.3% DMSO controls
[5] = CC_NCI screening, biological replicate Set 1
[6] = CC_NCI screening, biological replicate Set 1, normalized to on-plate 0.3% DMSO controls (n=16 per plate)
[7] = CC_NCI screening, biological replicate Set 2
[8] = CC_NCI screening, biological replicate Set 2, normalized to on-plate 0.3% DMSO controls (n=16 per plate)
[9] = average of Set 1 and Set 2, normalized to 0.3% DMSO controls
[10] = CC_NCI screening, normalized to on-plate 0.3% DMSO controls
[11] = CC_NCI screening, LCA luminescence, biological replicate Set 1, normalized to on-plate 0.3% DMSO controls (n=16 per plate)
[12] = CC_NCI screening, LCA luminescence, biological replicate Set 2, normalized to on-plate 0.3% DMSO controls (n=16 per plate)
[13] = CC_NCI screening, LCA, biological replicate Set 1
[14] = CC_NCI screening, LCA, biological replicate Set 2
[15] = CC_NCI screening, average of Set 1 and Set 2, normalized to 0.3% DMSO controls

Row | SMILES | Split Luciferase Assay Z-score Set 1 [1, 5] | Split Luciferase Assay Z-score Set 2 [1, 7] | Split Luciferase Assay %Lum Set 2 [1, 8] | Split Luciferase Assay %Lum Avg [1, 9] | viability at 16 h, 30 µM (in vitro) | Toxicity Assay Z-score (CTB cell viability) (Clone V cells [3]; 16 h, 30 µM) | Luciferase Assay % Lum (full-length luciferase counter-screen) [2, 10] | Luciferase Assay Z-score (full-length luciferase counter-screen) [2, 10] | Toxicity Assay % Fluor (Clone V cells [4]) | Split Luciferase Assay % Lum Set 1 [1, 11] | Split Luciferase Assay %Lum Set 2 [1, 12] | Split Luciferase Assay Z-score Set 1 [1, 13] | Split Luciferase Assay Z-score Set 2 [1, 14] | Split Luciferase Assay %Lum Avg [1, 15] | Luciferase Assay % Lum [2, 10] | Luciferase Assay Z-score [2, 10] | Toxicity Assay Z-score (Clone V cells [3]; 16 h, 30 µM) | further results
1 | CNNCc1ccc(C(=O)NC(C)C)cc1 [Procarbazine hydrochloride] | 1.52 | -0.26 | 96.75% | 107.78% | 109% | 1.21 | – | – | – | – | – | – | – | – | – | – | – | Split Luciferase Assay % Lum Set 1 [1, 6]: 118.82%; Luciferase Assay % Lum (full-length luciferase counter-screen) [2]: 99.34%; Luciferase Assay Z-score (full-length luciferase counter-screen) [2]: -0.08
2 | O=C(NCCCNc1nc(Nc2cccc(NC(=O)N3CCCC3)c2)ncc1I)c1cccs1 [BX 795] | -4.28 | -5.85 | 28.09% | 37.58% | 103% | 0.47 | 70.68% | -3.76 | – | – | – | – | – | – | – | – | – | Split Luciferase Assay % Lum Set 1 [1, 6]: 47.07%
3 | CN(C)/N=N/c1[nH]cnc1C(N)=O [Dacarbazine] | 3.01 | 2.70 | 133.16% | 135.23% | 106% | 0.82 | – | – | – | – | – | – | – | – | – | – | – | Luciferase Assay % Lum (full-length luciferase counter-screen) [2]: 99.29%; Luciferase Assay Z-score (full-length luciferase counter-screen) [2]: -0.09
4 | C#Cc1cccc(Nc2ncnc3cc(OCCOC)c(OCCOC)cc23)c1 [ERLOTINIB] | -0.76 | -1.53 | 81.14% | 85.85% | – | 0.46 | 80.96% | -2.44 | – | – | – | – | – | – | – | – | – | Split Luciferase Assay % Lum Set 1 [1, 6]: 90.56%; viability at 16 h, 30 µM (in vitro; Clone V cells): 103%
5 | O=NN(CCCl)C(=O)NCCCl [Carmustine] | 0.55 | 0.24 | – | – | – | – | 102.90% | 0.37 | – | – | – | – | – | – | – | – | – | Split Luciferase Assay % Lum Set 1 [1]: 106.86%; Split Luciferase Assay %Lum Avg [1]: 104.93%; Split Luciferase Assay %Lum Set 2 [1]: 102.99%; viability (in vitro): 117%; Toxicity Assay Z-score (CTB cell viability) (Clone V cells [3]): 2.39
6 | O=NN(CCCl)C(=O)NC1CCCCC1 [Lomustine] | 0.12 | 2.53 | – | – | – | – | 109.33% | 1.20 | – | – | – | – | – | – | – | – | – | Split Luciferase Assay % Lum Set 1 [1]: 101.43%; Split Luciferase Assay %Lum Avg [1]: 116.25%; Split Luciferase Assay %Lum Set 2 [1]: 131.08%; viability (in vitro): 103%; Toxicity Assay Z-score (CTB cell viability) (Clone V cells [3]): 0.41
7 | CCC1=C[C@@H]2CN(C1)Cc1c([nH]c3ccccc13)[C@@](C(=O)OC)(c1cc3c(cc1OC)N(C)[C@H]1[C@@](O)(C(=O)OC)[C@H](OC(C)=O)[C@]4(CC)C=CCN5CC[C@]31[C@@H]54)C2 [Vinorelbine tartrate] | – | – | – | – | – | – | – | – | 88.42% | 231.88% | 185.18% | 10.66 | 6.93 | 208.53% | 110.51% | 1.35 | -1.62 | –
8 | Cc1ccc(C(=O)Nc2ccc(CN3CCN(C)CC3)c(C(F)(F)F)c2)cc1C#Cc1cnc2cccnn12 [Ponatinib] | – | – | – | – | – | – | – | – | 80.95% | 53.59% | 58.26% | -3.75 | -3.40 | 55.93% | 84.93% | -1.93 | – | Toxicity Assay Z-score (Clone V cells [3]): -2.66
9 | CC1=C(/C=C/C(C)=C/C=C/C(C)=C/C(=O)O)C(C)(C)CCC1 [Tretinoin] | – | – | – | – | – | – | – | – | 87.25% | 117.73% | 106.11% | 1.43 | 0.50 | 111.92% | 80.43% | -2.51 | -1.78 | –
10 | COc1c2occc2cc2ccc(=O)oc12 [Methoxsalen] | – | – | – | – | 109% | 1.23 | 93.90% | -0.78 | – | – | – | – | – | – | – | – | – | –
11 | CN(C)CC[C@H](CSc1ccccc1)Nc1ccc(S(=O)(=O)NC(=O)c2ccc(N3CCN(Cc4ccccc4-c4ccc(Cl)cc4)CC3)cc2)cc1[N+](=O)[O-] [ABT-737] | – | – | – | – | – | – | – | – | 107.35% | 132.95% | 126.92% | 2.66 | 2.19 | 129.94% | 95.47% | -0.58 | 1.03 | –
12 | C#Cc1cccc(Nc2ncnc3cc(OCCOC)c(OCCOC)cc23)c1 [Erlotinib hydrochloride] | – | – | – | – | – | – | – | – | 93.40% | 118.82% | 73.86% | 1.52 | -2.13 | 96.34% | 82.34% | -2.26 | -0.92 | –
13 | Oc1ncnc2[nH]ncc12 [Allopurinol] | – | – | – | – | – | – | – | – | 88.22% | 106.86% | 95.71% | 0.55 | -0.35 | 101.29% | 96.95% | -0.39 | -1.65 | –
